Data on four molecules can be found in ChEMBL document CHEMBL5126623, “Dual Targeting of Steroid Sulfatase and 17β-Hydroxysteroid Dehydrogenase Type 1 by a Novel Drug-Prodrug Approach: A Potential Therapeutic Option for the Treatment of Endometriosis” (J Med Chem, 2022).

Series [1] addresses T1, Steryl-sulfatase (Homo sapiens, UniProt P08842).
T1 sequence (P08842 whole entry): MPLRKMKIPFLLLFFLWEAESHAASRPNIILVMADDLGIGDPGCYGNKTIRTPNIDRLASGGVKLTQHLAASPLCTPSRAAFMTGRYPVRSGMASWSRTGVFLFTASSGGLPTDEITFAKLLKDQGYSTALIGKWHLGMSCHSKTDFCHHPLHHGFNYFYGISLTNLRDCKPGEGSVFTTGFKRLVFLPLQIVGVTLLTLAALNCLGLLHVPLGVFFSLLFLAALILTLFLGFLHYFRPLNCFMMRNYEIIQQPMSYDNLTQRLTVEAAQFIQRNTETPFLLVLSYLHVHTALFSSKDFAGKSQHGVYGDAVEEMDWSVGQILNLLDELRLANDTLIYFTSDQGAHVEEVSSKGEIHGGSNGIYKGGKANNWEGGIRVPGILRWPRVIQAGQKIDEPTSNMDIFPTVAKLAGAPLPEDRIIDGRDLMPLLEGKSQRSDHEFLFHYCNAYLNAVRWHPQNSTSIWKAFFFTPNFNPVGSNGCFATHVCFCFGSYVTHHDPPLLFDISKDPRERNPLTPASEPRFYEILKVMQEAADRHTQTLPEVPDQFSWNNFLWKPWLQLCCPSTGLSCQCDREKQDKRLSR
Put plainly: Inhibition of STS in human T47D cells using [3H]E1S as substrate measured after 24 hrs by HPLC analysis. The series is classed as cell-based.

In series [2] the target is T1, Steryl-sulfatase. The series is described as follows: Irreversible inhibition of STS in human T47D cells using [3H]E1S as substrate measured after 24 hrs by HPLC analysis. The series is classed as cell-based.
Series [3] in a line: Metabolic stability in human liver S9 fraction assessed as half life at 1 uM in presence of NADPH measured upto 60 min by LC-MS/MS analysis. The series is classed as ADME, subcellular.
Series [4] is described as follows: Metabolic stability in mouse liver S9 fraction assessed as half life at 1 uM in presence of NADPH measured upto 60 min by LC-MS/MS analysis. The class given is ADME, subcellular.
Series [5] is described as follows: Metabolic stability in human liver S9 fraction assessed as intrinsic clearance at 1 uM in presence of NADPH measured upto 60 min by LC-MS/MS analysis. The series is classed as ADME, subcellular. The note with it: s9, 1 h.
Series [6] can be described thus: Metabolic stability in mouse liver S9 fraction assessed as intrinsic clearance at 1 uM in presence of NADPH measured upto 60 min by LC-MS/MS analysis. The class given is ADME, subcellular. The note with it: s9, 1 h.
A short description of series [7]: Cytotoxicity against human HEK293 cells assessed as cell growth inhibition at 20 uM measured at 48 hrs bt MTT assay relative to control. The series is classed as toxicity, cell-based. (In general: Tetrazolium assays rely on reduction of a dye to a coloured formazan, in cell work by metabolically active cells.)
Series [8] addresses T2, 17-beta-hydroxysteroid dehydrogenase type 1 (Homo sapiens, UniProt P14061).
T2 sequence (P14061 whole entry): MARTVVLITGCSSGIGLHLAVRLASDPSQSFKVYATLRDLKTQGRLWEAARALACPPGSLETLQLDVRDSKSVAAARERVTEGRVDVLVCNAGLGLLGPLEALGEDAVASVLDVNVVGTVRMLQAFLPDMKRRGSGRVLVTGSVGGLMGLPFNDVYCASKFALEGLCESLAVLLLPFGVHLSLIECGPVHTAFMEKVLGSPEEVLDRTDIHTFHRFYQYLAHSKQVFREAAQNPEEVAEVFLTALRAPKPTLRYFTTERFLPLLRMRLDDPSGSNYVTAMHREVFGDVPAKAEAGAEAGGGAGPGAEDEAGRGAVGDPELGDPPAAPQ
Put plainly: Inhibition of 17beta-HSD1 in human T47D cells using [3H]E1S as substrate measured after 24 hrs by HPLC analysis. The series is classed as cell-based.

Another series is filed under the species Homo sapiens. Put plainly: Selectivity ratio of IC50 for human placental microsomal fraction 17beta-HSD2 to IC50 for human placental cytosolic fraction 17beta-HSD1.
The target in series [9] is T3, 17-beta-hydroxysteroid dehydrogenase type 1 (Homo sapiens) (UniProt P14061).
T3 sequence (whole entry): T2 sequence (P14061 whole entry)
Put plainly: Inhibition of human 17beta-HSD1 at 50 nM using [3H]-E1 as substrate measured after 13.5 hrs in presence of NADH by LC-MS/MS analysis.

The target of series [10] is T3, 17-beta-hydroxysteroid dehydrogenase type 1 (Homo sapiens). The settings on record: dose 50.0 nM, time 24.0 hrs.
Series [11] can be described thus: Stability of compound in phosphate buffer measured after 24 hrs by LC-MS/MS analysis. The class given is physicochemical. The note with it: read-out: Stability.
The nature of series [12]: Stability in human T47D cells cultured in DMEM medium measured after 24 hrs by LC-MS/MS analysis. The class given is ADME, cell-based. The settings on record: read-out: Stability.
For series [13], the target named is T3, 17-beta-hydroxysteroid dehydrogenase type 1 (Homo sapiens). The settings on record: dose 50.0 nM, time 6.5 hrs.
Description: Inhibition of human placental cytosolic fraction 17beta-HSD1 at 50 nM using [3H]-E1 as substrate in presence of NADH measured after 6.5 hrs by LC-MS/MS method

Some results are limits rather than exact numbers.

In general, IC50 refers to the concentration that gives 50% inhibition. One may read the half-life as the time needed for the level to fall by half in the phase considered. By inhibition is commonly meant the share of the control response that was lost under treatment. Consider `Cc1ccccc1N(C)C(=O)c1ccc(-c2ccc(OS(N)(=O)=O)cc2Cl)o1`, for which the IC50 amounted to 27 nM against Steryl-sulfatase [1] and 29 nM against Steryl-sulfatase [2]. Further, the half-life at 1 µM in series [3] worked out at 39 min; in [4], 20 min. Moreover, the intrinsic clearance in [5] worked out at 18 µL/min/mg; in series [6] it was 39 µL/min/mg. Moreover, the inhibition at 48 h, 20 µM in [7] stood at 11.7%.
For the molecule `Cc1ccccc1N(C)C(=O)c1ccc(-c2ccc(OS(N)(=O)=O)c(Cl)c2)o1`, the IC50 came out at 25 nM on Steryl-sulfatase [1] and 27 nM against Steryl-sulfatase [2]. Besides, the half-life at 1 µM was 48 min in series [3] and 31 min in [4]. The intrinsic clearance in [5] is 15 µL/min/mg; in series [6], 24 µL/min/mg. Moreover, in series [7], the inhibition at 48 h, 20 µM turned out to be 55%.
In series [8], `Cc1ccccc1N(C)C(=O)c1ccc(-c2ccc(O)cc2)o1` returned an IC50 of 21 nM. Besides, the Ratio IC50 in the series filed under Homo sapiens came to 51. The inhibition is 50% in series [9] and less than 60% in series [10].
As for `Cc1ccccc1N(C)C(=O)c1ccc(-c2ccc(OS(N)(=O)=O)cc2)o1`, the IC50 on Steryl-sulfatase [1] was found to be 28 nM; on Steryl-sulfatase [2], 31 nM. Moreover, the half-life at 1 µM in series [3] is 47 min; in [4], 25 min. In addition, the intrinsic clearance came out at 15 µL/min/mg in series [5] and 31 µL/min/mg in series [6]. Besides, in [7], the inhibition at 48 h, 20 µM worked out at 11.7%. Moreover, the remaining at 24 h in series [11] is 40%; in series [12], 94%. The same molecule yielded an inhibition in series [13] of 50%.
